Data reported in patent US10266544B2, “Aryl substituted aminomethyl spectinomycin analogs as antibacterial agents” (ST. JUDE CHILDREN'S RESEARCH HOSPITAL, INC., priority 2013, dated 2019).
Where a name gives a salt, the structure may show the parent alone. Read-outs that look alike come from different tables or passages of the source.

Experiments:
Assay type in all cases: cell-based
Listeria monocytogenes = test: MIC determination (Table 6)
[1] = test system: Bacillus subtilis (ATCC 23857); test: MIC determination, microbroth dilution; settings: ATCC23857; Bacillus subtilis (ATCC 23857); read-out: MIC B.s.
[2] = test system: Haemophilus influenza (ATCC 49247); test: microbe, parasite or virus in culture; settings: ATCC49247; Haemophilus influenza; 4 μg per disc; range of at least two experiments; read-out: Zone of inhibition H.i.
[3] = test system: Enterococcus faecalis (ATCC 33186); test: MIC determination, microbroth dilution; settings: ATCC33186; Enterococcus faecalis (ATCC 33186); read-out: MIC E.f.
[4] = test system: Streptococcus pneumoniae clinical isolates representing several serotypes; test: MIC determination, Streptococcus pneumoniae panel of clinical isolates (Table 7); settings: for MIC: Streptococcus pneumoniae
[5] = test system: Proteus vulgaris (ATCC 33420); test: MIC determination, microbroth dilution; settings: ATCC33420
E. coli K12 ΔtolC = test: microbe, parasite or virus in culture; settings: Escherichia coli, read-out: MIC E.c. Δtolc
[6] = test system: live vaccine strain (LVS) of Francisella tularensis; test: microbe, parasite or virus in culture; settings: Francisella tularensis, read-out: MIC F.t.
[7] = test system: Legionella pneumophila (ATCC 33153); test: microbe, parasite or virus in culture; settings: ATCC33153, 72 h, read-out: Zone of inhibition L.p.
[8] = test system: Klebsiella pneumoniae (ATCC 33495); test: MIC determination, microbroth dilution; settings: ATCC33495
[9] = test system: Burkholderia cepacia (ATCC 25416); test: MIC determination, microbroth dilution; settings: Burkholderia cepacia
[10] = test system: Bacillus anthracis, Sterne 34F2; test: microbe, parasite or virus in culture; settings: STERNE34F2, read-out: MIC B.a.
[11] = test system: Pseudomonas aeruginosa (PA01); test: MIC determination, microbroth dilution
[12] = test system: Staphylococcus aureus (ATCC 29213); test: MIC determination, microbroth dilution; settings: ATCC29213; Staphylococcus aureus (ATCC 29213); read-out: MIC S.a.
[13] = test system: Neisseria gonorrhoeae (ATCC 49226); test: Agar MIC determination (Alamar Blue); settings: ATCC49226, agar MIC, read-out: MIC N.g.
Moraxella catarrhalis = test: MIC determination (Table 6)
[14] = test system: Escherichia coli (ATCC 700926); test: MIC determination, microbroth dilution; settings: ATCC700926; Escherichia coli (ATCC 700926); read-out: MIC E.c.
[15] = test system: M. tuberculosis clinical isolates; test: microbe, parasite or virus in culture; settings: Mycobacterium tuberculosis, H37RV, read-out: MIC H37Rv

CN[C@@H]1[C@H](O)[C@H](NC)[C@H]2O[C@]3(O)[C@H](O[C@@H]2[C@H]1O)O[C@H](C)C[C@@]3(O)CNCc1ccc(F)cc1 [compound 2, 3′-(R)-3′-[(4-fluoro)benzylaminomethyl)]dihydrospectinomycin Trihydrochloride]
MIC (Listeria monocytogenes): 6.3 µg/mL
MIC [1]: 3.1 µg/mL
zone of inhibition at 4 µg/disc [2]: 17 to 19 mm
MIC [3]: 12.5 to 25 µg/mL
susceptibility of strains with mono-resistance to penicillin, streptomycin, and erythromycin [4]: highly susceptible
MIC ([4]; BAA1407, S. pneumoniae BAA-1407, Macrolide Resistant, read-out: MIC BAA-1407): 6.3 µg/mL
MIC ([4]; S. pneumoniae A66.1x, Drug Susceptible, read-out: MIC A66.1x): 1.6 µg/mL
MIC ([4]; S. pneumoniae BHN97x, Drug Susceptible, read-out: MIC BHN97x): 1.6 µg/mL
MIC ([4]; S. pneumoniae D39X, Drug Susceptible, read-out: MIC D39X): 1.6 µg/mL
MIC ([4]; S. pneumoniae Daw7, PenG Resistant, read-out: MIC Daw7): 3.1 µg/mL
MIC ([4]; S. pneumoniae Daw8, PenG Resistant, read-out: MIC Daw8): 3.1 µg/mL
MIC ([4]; S. pneumoniae Daw9, PenG Resistant, read-out: MIC Daw9): 3.1 µg/mL
MIC ([4]; S. pneumoniae Daw62, PenG Resistant, read-out: MIC Daw62): 3.1 µg/mL
MIC ([4]; S. pneumoniae Daw64, PenG Resistant, read-out: MIC Daw64): 3.1 µg/mL
MIC ([4]; S. pneumoniae OVA6, Macrolide Resistant, read-out: MIC OVA6): 3.1 µg/mL
MIC ([4]; S. pneumoniae T4X, Drug Susceptible, read-out: MIC T4X): 3.1 µg/mL
MIC [5]: ≥ 200 µg/mL
MIC (E. coli K12 ΔtolC): 6.3 µg/mL
MIC [6]: 1.6 to 3.1 µg/mL
zone of inhibition at 4 µg/disc [7]: 32 to 49 mm
MIC [8]: 100 to 200 µg/mL
MIC ([9]; ATCC25416, read-out: MIC B.c., Burkholderia cepacia (ATCC 25416)): > 200 µg/mL
MIC ([9]; ATCC25416, read-out: MIC B.c., Burkholderia cepacia, Table 6): > 200 µg/mL
MIC [10]: 25 µg/mL
MIC [11]: 100 to 200 µg/mL
MIC [12]: 25 to 50 µg/mL
MIC [13]: 25 µg/mL
MIC (Moraxella catarrhalis): 3.1 µg/mL
MIC [14]: 25 µg/mL
MIC [15]: 25 µg/mL
